“Also recorded” adds a separate entry of the source. Like-named read-outs stand apart in the source and are kept apart here.
Legend:
[1] = Phase-1 drug-drug interaction study in healthy volunteers (Compound (III) 800 mg, SMV 150 mg, Odalasvir 150 mg loading then 50 mg, once daily): plasma PK; type: in vivo, human; conditions: for AUC0-24 / Cmax: both sexes, human, plasma, oral; for AUC0-24: read-out: AUC0-24; for Cmax: read-out: Cmax
Text: The following daily doses were employed:

[2] = PK of single agents vs fixed dose combinations (FDC), single oral dose in healthy volunteers; type: in vivo, human; conditions: for Cmax / AUC(0-t) / AUC(0-inf) / Tmax: human, plasma, oral; for Cmax: read-out: Cmax (mean ± SD); for AUC(0-t): read-out: AUClast (mean ± SD); for AUC(0-inf): read-out: AUC∞ (mean ± SD); for Tmax: read-out: tmax (median [range])
How it was run: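 Healthy volunteers received single oral doses of SMV 100 mg, ODV 50 mg and Compound (III) 800 mg, either as separate agents (reference arm) or as fixed dose combinations with ODV spray-dried with HPMC-AS L (1/1 or 1/3 w/w) or with copovidone/poloxamers. Plasma Cmax, tmax, AUClast and AUC∞ determined for parent drugs and metabolites Compound A-1 and A-3.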

[3] = biological target: P-gp (Homo sapiens, UniProt P08183); conditions: in vitro, cited from earlier work
Sequence of P-gp (P08183 whole entry): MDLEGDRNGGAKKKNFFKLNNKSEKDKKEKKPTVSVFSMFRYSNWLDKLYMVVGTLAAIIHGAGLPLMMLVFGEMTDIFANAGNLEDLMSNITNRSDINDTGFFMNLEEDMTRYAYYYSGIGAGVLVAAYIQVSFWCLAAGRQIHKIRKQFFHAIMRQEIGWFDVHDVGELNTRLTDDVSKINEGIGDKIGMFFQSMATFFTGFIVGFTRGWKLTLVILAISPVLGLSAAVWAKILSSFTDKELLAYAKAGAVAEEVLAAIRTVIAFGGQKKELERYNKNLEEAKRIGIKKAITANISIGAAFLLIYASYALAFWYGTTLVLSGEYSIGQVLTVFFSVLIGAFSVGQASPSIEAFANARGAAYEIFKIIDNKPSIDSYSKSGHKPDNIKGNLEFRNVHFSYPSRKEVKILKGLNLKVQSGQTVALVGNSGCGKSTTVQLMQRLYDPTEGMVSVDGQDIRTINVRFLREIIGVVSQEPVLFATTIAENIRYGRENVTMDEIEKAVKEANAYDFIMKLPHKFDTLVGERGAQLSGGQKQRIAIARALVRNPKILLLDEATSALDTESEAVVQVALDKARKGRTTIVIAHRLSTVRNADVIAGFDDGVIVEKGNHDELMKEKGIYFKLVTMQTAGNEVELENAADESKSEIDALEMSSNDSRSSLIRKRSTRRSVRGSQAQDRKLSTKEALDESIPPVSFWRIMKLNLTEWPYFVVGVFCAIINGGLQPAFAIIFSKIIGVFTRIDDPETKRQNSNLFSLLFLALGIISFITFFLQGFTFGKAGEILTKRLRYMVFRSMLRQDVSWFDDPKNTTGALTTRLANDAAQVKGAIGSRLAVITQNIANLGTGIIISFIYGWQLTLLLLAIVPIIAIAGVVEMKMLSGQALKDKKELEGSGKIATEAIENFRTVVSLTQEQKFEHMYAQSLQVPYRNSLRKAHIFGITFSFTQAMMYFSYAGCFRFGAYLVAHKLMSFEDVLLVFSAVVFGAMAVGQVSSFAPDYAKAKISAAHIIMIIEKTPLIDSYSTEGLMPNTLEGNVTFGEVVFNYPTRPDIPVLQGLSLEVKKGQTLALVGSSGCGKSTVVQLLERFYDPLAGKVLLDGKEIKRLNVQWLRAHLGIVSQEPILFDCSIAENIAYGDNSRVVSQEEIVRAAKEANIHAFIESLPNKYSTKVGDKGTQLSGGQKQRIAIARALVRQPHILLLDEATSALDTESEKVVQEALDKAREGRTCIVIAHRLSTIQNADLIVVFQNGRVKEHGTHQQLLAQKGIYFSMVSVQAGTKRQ

[4] = biological target: T1, BCRP (Homo sapiens, UniProt Q9UNQ0); conditions: in vitro; cited from earlier work
T1 sequence (Q9UNQ0 1-655): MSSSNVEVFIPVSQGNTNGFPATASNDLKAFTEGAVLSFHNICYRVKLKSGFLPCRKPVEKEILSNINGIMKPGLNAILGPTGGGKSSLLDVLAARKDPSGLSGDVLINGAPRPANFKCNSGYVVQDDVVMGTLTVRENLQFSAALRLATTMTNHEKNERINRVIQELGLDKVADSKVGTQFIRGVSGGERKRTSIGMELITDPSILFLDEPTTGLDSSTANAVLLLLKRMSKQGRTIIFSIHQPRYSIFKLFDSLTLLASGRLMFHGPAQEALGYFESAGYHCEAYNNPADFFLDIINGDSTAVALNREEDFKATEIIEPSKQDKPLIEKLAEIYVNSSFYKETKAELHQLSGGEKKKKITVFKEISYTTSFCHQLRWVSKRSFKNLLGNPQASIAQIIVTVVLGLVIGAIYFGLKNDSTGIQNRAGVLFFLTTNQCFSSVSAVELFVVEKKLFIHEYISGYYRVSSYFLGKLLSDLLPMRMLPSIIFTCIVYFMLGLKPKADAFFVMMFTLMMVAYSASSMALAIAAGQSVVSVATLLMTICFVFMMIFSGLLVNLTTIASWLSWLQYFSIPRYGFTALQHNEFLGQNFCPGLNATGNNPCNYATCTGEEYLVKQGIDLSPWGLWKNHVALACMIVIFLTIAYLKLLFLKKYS

[5] = biological target: T2, OATP1B1 (Homo sapiens, UniProt Q9Y6L6); conditions: in vitro; cited from earlier work
T2 sequence (Q9Y6L6 1-691): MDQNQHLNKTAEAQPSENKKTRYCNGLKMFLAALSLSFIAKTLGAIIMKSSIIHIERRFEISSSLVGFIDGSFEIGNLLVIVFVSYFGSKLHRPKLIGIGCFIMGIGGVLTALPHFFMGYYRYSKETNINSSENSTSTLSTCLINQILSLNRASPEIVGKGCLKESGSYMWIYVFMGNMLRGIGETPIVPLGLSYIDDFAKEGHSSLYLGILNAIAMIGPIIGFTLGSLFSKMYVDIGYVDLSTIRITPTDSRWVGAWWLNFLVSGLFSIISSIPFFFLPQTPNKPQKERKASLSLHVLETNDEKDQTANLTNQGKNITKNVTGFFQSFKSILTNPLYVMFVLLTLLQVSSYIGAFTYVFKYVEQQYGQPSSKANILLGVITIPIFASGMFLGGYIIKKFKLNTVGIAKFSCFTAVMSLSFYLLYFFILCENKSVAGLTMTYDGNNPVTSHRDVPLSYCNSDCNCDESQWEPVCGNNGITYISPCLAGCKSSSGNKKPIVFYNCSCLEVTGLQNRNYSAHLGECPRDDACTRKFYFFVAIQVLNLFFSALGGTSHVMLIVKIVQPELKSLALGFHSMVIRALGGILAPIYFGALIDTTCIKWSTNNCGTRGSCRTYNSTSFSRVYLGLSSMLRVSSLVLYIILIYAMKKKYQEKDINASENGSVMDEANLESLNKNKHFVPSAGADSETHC

[6] = system: CYP (cytochrome P450 enzymes); experiment: CYP inhibition in vitro
[7] = Group 1, Day 23 (SMV + Compound (III) + ODV)
[8] = Group 2, Day 13 (ODV + Compound (III))
[9] = Group 2, Day 23 (ODV + Compound (III) + SMV)
[10] = Arm 1 (reference): single agents together
[11] = Arm 2 (FDC02) vs reference (Arm 1)
[12] = Arm 3 (FDC04) vs reference (Arm 1)
[13] = Arm 4 (FDC01) vs reference (Arm 1)

increase of exposure, effect of the three Compounds ([1]; Compound (III) + SMV + ODV co-administered vs given alone): 1.5 fold | AUC0-24 ([1]; Group 1, Day 20 (ODV + SMV)): 10.8 µg·h/mL | Cmax ([1]; Group 1, Day 20 (ODV + SMV)): 0.649 µg/mL | AUC0-24 [1, 7]: 12.8 µg·h/mL | Cmax [1, 7]: 0.744 µg/mL | AUC0-24 ([1]; Group 2, Day 10 (ODV alone)): 8.72 µg·h/mL | Cmax ([1]; Group 2, Day 10 (ODV alone)): 0.582 µg/mL | AUC0-24 [1, 8]: 10.2 µg·h/mL | Cmax [1, 8]: 0.669 µg/mL | AUC0-24 ([1]; Group 2, Day 20 (ODV + SMV)): 14 µg·h/mL | Cmax ([1]; Group 2, Day 20 (ODV + SMV)): 0.77 µg/mL | AUC0-24 [1, 9]: 14.8 µg·h/mL | Cmax [1, 9]: 0.78 µg/mL | increase of exposure caused by SMV ([1]; co-administered with SMV vs without): 1.6 fold | t1/2term (mean ± SD) [2, 10]: 168.6 ± 21.7 h | Least Square Means Ratio, AUClast [2, 11]: 89.66% | Least Square Means Ratio, Cmax [2, 11]: 81.00% | t1/2term (mean ± SD) ([2]; Arm 2: FDC02): 169.0 ± 24.5 h | Least Square Means Ratio, AUClast [2, 12]: 182.32% | Least Square Means Ratio, Cmax [2, 12]: 165.30% | t1/2term (mean ± SD) ([2]; Arm 3: FDC04): 176.0 ± 29.5 h | Least Square Means Ratio, AUClast [2, 13]: 180.14% | Least Square Means Ratio, Cmax [2, 13]: 163.29% | t1/2term (mean ± SD) ([2]; Arm 4: FDC01): 167.8 ± 22.4 h | Cmax ([2]; Arm 1 (reference): single agents together, SMV 100-mg capsule, ODV 50-mg tablet, two Compound (III) 400-mg tablets): 0.186 ± 0.0604 µg/mL | AUC(0-t) [2, 10]: 6.32 ± 2.32 µg·h/mL | AUC(0-inf) [2, 10]: 7.08 ± 2.14 µg·h/mL | Tmax [2, 10]: 6 h | Cmax ([2]; Arm 2: FDC02, SMV 100 mg + ODV 50 mg (ODV/HPMC-AS L 1/1 w/w) + Compound (III) 800 mg): 0.151 ± 0.054 µg/mL | AUC(0-t) ([2]; Arm 2: FDC02): 5.59 ± 1.89 µg·h/mL | AUC(0-inf) ([2]; Arm 2: FDC02): 7.04 ± 2.13 µg·h/mL | Tmax ([2]; Arm 2: FDC02): 6 h | Cmax ([2]; Arm 3: FDC04, SMV 100 mg + ODV 50 mg (ODV/HPMC-AS L 1/3 w/w) + Compound (III) 800 mg): 0.301 ± 0.0805 µg/mL | AUC(0-t) ([2]; Arm 3: FDC04): 11.5 ± 4.39 µg·h/mL | AUC(0-inf) ([2]; Arm 3: FDC04): 14.8 ± 5.12 µg·h/mL | Tmax ([2]; Arm 3: FDC04): 6 h | Cmax ([2]; Arm 4: FDC01, SMV 100 mg + ODV 50 mg (copovidone and poloxamers) + Compound (III) 800 mg): 0.298 ± 0.0817 µg/mL | AUC(0-t) ([2]; Arm 4: FDC01): 11.1 ± 3.35 µg·h/mL | AUC(0-inf) ([2]; Arm 4: FDC01): 15.7 ± 3.56 µg·h/mL | Tmax ([2]; Arm 4: FDC01): 6 h | CYP inhibition potential (in words) ([6]; on any CYP): does not inhibit | inhibition of any CYP ([6]; up to 10 μM): no inhibition
Structure (SMILES): COC(=O)N[C@H](C(=O)N1[C@H](c2nc3cc(-c4cc5ccc4CCc4ccc(c(-c6ccc7[nH]c([C@@H]8C[C@@H]9CCCC[C@@H]9N8C(=O)[C@@H](NC(=O)OC)C(C)C)nc7c6)c4)CC5)ccc3[nH]2)C[C@@H]2CCCC[C@@H]21)C(C)C [ODV, Odalasvir]
effect of Compound (III) on exposure / bioavailability ([1]; co-administered with Compound (III)): no apparent effect; also recorded: does not alter | P-gp inhibition (in words) [3]: moderate inhibition | IC50 ([3]; read-out: Pgp inhibition IC50): 9.5 µM | BCRP inhibition (in words) [4]: no inhibition | OATP1B1 inhibition (in words) [5]: no inhibition
